These compounds were tested against T1, Kv7.2/7.3 (Homo sapiens, UniProt O43525+O43526) (assay: Kv7.2/7.3 FluxOR Potassium Ion Channel Assay (Invitrogen, F20015)). Settings: not given.
Format: cell-based
CCOC(=O)Nc1ccc(NCc2ccc(F)cc2)cc1N [ezogabine] gave an EC50 of 1.1 µM.

What follows are compounds tested against T1, Kv7.2/7.3 (assay: Kv7.2/7.3 Thallium Flux Assay). Settings: read-out: Kv7.2/7.3 Activity: EC50 of Kv7.2/Kv7.3 activation.
Format: cell-based
Parameters: host or cells: HEK cells, tetracycline-inducible expression
Summary of the method: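 Tetracycline-induced (10 ng/mL) hKv7.2/7.3 cell line tested over eight concentrations, 0.014–30 μM, in 0.1% DMSO extracellular solution; FluxOR II thallium-sensitive dye read at Ex 475/Em 530 nm. After 15 sec baseline, thallium/potassium stimulus injected, endpoint at 90 sec; responses normalized to retigabine ([…] max), Hill fit gave EC50 and maximal response.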
CC(C)(C)CC(=O)Nc1nc2ccc(F)c(Br)c2n1C1(C)CCC1 [Example 550, N-(7-bromo-6-fluoro-1-(1-methylcyclobutyl)-1H-benzo[d]imidazol-2-yl)-3,3-dimethylbutanamide] was tested, and the EC50 was < 1 µM.
C=Cc1c(F)ccc2nc(NC(=O)CC(C)(C)C)n(C3CCC3)c12 [Example 552, N-(1-cyclobutyl-6-fluoro-7-vinyl-1H-benzo[d]imidazol-2-yl)-3,3-dimethylbutanamide] was tested, and the EC50 was < 1 µM.
For COc1cc(C#N)cc2c1nc(NC(=O)CC(C)(C)C(F)(F)F)n2C1(C)CCC1 [Example 554], the EC50 was < 1 µM.
CC1(n2c(NC(=O)CC(C)(C)C(F)(F)F)nc3ccc(Cl)c(F)c32)CCC1 [Example 555, N-(6-chloro-7-fluoro-1-(1-methylcyclobutyl)-1H-benzo[d]imidazol-2-yl)-4,4,4-trifluoro-3,3-dimethylbutanamide] was tested, and the EC50 was < 1 µM.
In the case of CC1(n2c(NC(=O)CC3(C(F)(F)F)CC3)nc3c(F)cc(C#N)cc32)CCC1 [Example 561, N-(6-cyano-4-fluoro-1-(1-methylcyclobutyl)-1H-benzo[d]imidazol-2-yl)-2-(1-(trifluoromethyl)cyclopropyl)acetamide], the EC50 is reported as < 1 µM.

Source: patent US10851067B2, “Kv7 channel activators compositions and methods of use” (Knopp Biosciences LLC, priority 2018, dated 2020)
